Read-outs that look alike come from different tables or passages of the source.
Experiments:
[1] = for RFU change (Correlation analysis) / RFU change (Signal deviation with increasing [Carbohydrate]) / λmax change: 3 μM probe; for RFU change (Correlation analysis): probe-specific excitation λ, emission 545 nm; for RFU change (Signal deviation with increasing [Carbohydrate]) / λmax change: spectral analysis, Excitation 300-500, Emission 545; for carbohydrate can be detected and/or differentiated by the LCO: conclusion from change in signal magnitude and/or shift in λmax; for Gradient Parameters (gradient of regression line) / Linear relationship / Quality of Gradient: linear regression
Protocol: (§1) The excitation spectrum of the probe was analyzed for wavelengths 300-500 nm with emission read at 545 nm.
(§2) 3 μM of each probe was applied to serial two fold dilutions of the insoluble carbohydrate. Respective probes were excited at wavelengths unique to each probe (specified in figure), and emission was read at 545 nm.
(§3) Serial dilutions of carbohydrate suspensions were prepared in dH2O. Concentrations ranging from 10 to 0.039 mg/ml was used for β-1,3-glucan, cellulose and chitin, whereas 5 to 0.019 mg/ml was used for sodium alginate, glucose, amylose, glycogen, cellulobiose, heparin, chondroitin sulfate A. 3 μM of each LCO probe was added to 1 ml aliquots of each concentration of carbohydrate, after which 100 μl was dispensed in triplicates into 96 well plates. Excitation spectra were collected by exciting the sample from 300 to 500 nm and detecting emission at 545 nm. Detection of carbohydrate is concluded when there is a reproducible change in λmax and/or RFU intensity with reference to the negative control. Data from three concentrations, as well as the negative control are shown for each carbohydrate as specified in respective figure.
(§4) The excitation wavelength (emission detected at 545 nm) selected for each LCO is either (1) the λmax, or (2) the excitation wavelength which suffers the lowest background. A linear regression analysis is performed to determine the relationship between the carbohydrate concentration and RFU.

[2] = Protocol: 3 μM of each probe was applied to serial two fold dilutions of the insoluble carbohydrate of which the concentration shown here are 5 mg/ml (_.), 2.5 mg/ml (. . . ), 1.25 mg/ml (__) and 0 mg/ml (_). The excitation spectrum of the probe was analyzed for wavelengths 300-500 nm with emission read at 545 nm.
as §2, §3, §4

[3] = remark: listed apart in the source
Protocol: (§5) 3 μM of each probe was applied to serial two fold dilutions of the carbohydrate of which the concentration shown here are 5 mg/ml (_.), 2.5 mg/ml (. . . ) 1.25 mg/ml (__) and 0 mg/ml (_). The excitation spectrum of the probe was analyzed for wavelengths 300-500 nm with emission read at 545 nm.
3 μM of each probe was applied to serial two fold dilutions of the carbohydrate. Respective probes were excited at wavelengths unique to each probe (specified in figure), and emission was read at 545 nm. […] The mean increase in signal (_) with [Glucose] and the fitted regression line (__) is shown.
as §3, §4

[4] = for RFU change (Correlation analysis): probe-specific excitation λ, emission 545 nm; for Gradient Parameters (gradient of regression line) / Quality of Gradient: linear regression
Protocol: as §5
(§6) 3 μM of each probe was applied to serial two fold dilutions of the carbohydrate. Respective probes were excited at wavelengths unique to each probe (specified in figure), and emission was read at 545 nm.
as §3, §4

[5] = for RFU change (Correlation analysis): probe-specific excitation λ, emission 545 nm; for carbohydrate can be detected and/or differentiated by the LCO: conclusion from change in signal magnitude and/or shift in λmax; for Gradient Parameters (gradient of regression line) / Linear relationship / Quality of Gradient: linear regression
Protocol: 3 μM of each probe was applied to serial two fold dilutions of the carbohydrate of which the concentration shown here are 5 mg/ml (_.), 2.5 mg/ml (. . . ), 1.25 mg/ml (__) and 0 mg/ml (_). The excitation spectrum of the probe was analyzed for wavelengths 300-500 nm with emission read at 545 nm.
as §6, §3, §4

[6] = remark: listed apart in the source
Protocol: as §1, §6, §3, §4

[7] = β-1,3-glucan concentration vs RFU
[8] = sodium alginate concentration vs RFU, linear regression
[9] = glucose concentration vs RFU, linear regression
[10] = Cellulobiose 5-0.019 mg/ml, 3 μM probe, spectral analysis, Excitation 300-500, Emission 545
[11] = cellulobiose concentration vs RFU
[12] = Glycogen 5-0.019 mg/ml, 3 μM probe, spectral analysis, Excitation 300-500, Emission 545
[13] = Chondroitin Sulfate A 5-0.019 mg/ml, 3 μM probe, spectral analysis, Excitation 300-500, Emission 545
[14] = Chondroitin Sulfate A concentration vs RFU, linear regression

SMILES: Cl.Cl.N=C(N)NCCC[C@H](NC(=O)Cc1cc(-c2cccs2)sc1-c1ccc(-c2sc(-c3cccs3)cc2CC(=O)N[C@@H](CCCNC(=N)N)C(=O)O)s1)C(=O)O [pHTA-Arg, penta Hydrogen Thiophene Acetic acid Arginine]
- RFU change (Correlation analysis) ([1]; Cellulose 10-[…]): Increase
- RFU change (Signal deviation with increasing [Carbohydrate]) ([1]; Cellulose 10-[…]): Increase
- λmax change ([1]; Cellulose 10-[…]): Redshift
- carbohydrate can be detected and/or differentiated by the LCO ([1]; Cellulose): can be detected and/or differentiated
- RFU change (Correlation analysis) ([1]; Chitin 10-[…]): Increases
- RFU change (Signal deviation with increasing [Carbohydrate]) ([1]; Chitin 10-[…]): Increases
- λmax change ([1]; Chitin 10-[…]): Redshift
- carbohydrate can be detected and/or differentiated by the LCO ([1]; Chitin): can be detected and/or differentiated
- Gradient Parameters (gradient of regression line) ([1]; cellulose concentration vs RFU): 194.0 ± 29.9
- Linear relationship ([1]; cellulose concentration vs RFU): Significant
- Quality of Gradient ([1]; cellulose concentration vs RFU): Positive
- Gradient Parameters (gradient of regression line) ([1]; chitin concentration vs RFU): 338.2 ± 19.4
- Linear relationship ([1]; chitin concentration vs RFU): Significant
- Quality of Gradient ([1]; chitin concentration vs RFU): Positive
- Sensitivity ([1]; to cellulose): Yes
- Sensitivity ([1]; to chitin): Yes
- Sensitivity ([1]; to β-1,3-glucan): Yes
- carbohydrate can be detected and/or differentiated by the LCO ([1]; β-1,3-Glucan): can be detected and/or differentiated
- RFU change (Correlation analysis) ([1]; β-1,3-glucan 10-[…]): Increase
- RFU change (Signal deviation with increasing [Carbohydrate]) ([1]; β-1,3-glucan 10-[…]): Increase
- Gradient Parameters (gradient of regression line) [1, 7]: 119.1 ± 16.69
- Quality of Gradient [1, 7]: Positive
- RFU change (Correlation analysis) ([2]; Sodium alginate 5-0.019 mg/ml, 3 μM probe, probe-specific excitation λ, emission 545 nm): Increases
- RFU change (Signal deviation with increasing [Carbohydrate]) ([2]; Sodium alginate 5-0.019 mg/ml, 3 μM probe, spectral analysis, Excitation 300-500, Emission 545): Increases
- carbohydrate can be detected and/or differentiated by the LCO ([2]; Sodium alginate, conclusion from change in signal magnitude and/or shift in λmax): can be detected and/or differentiated
- Gradient Parameters (gradient of regression line) [2, 8]: 78.6 ± 18.6
- Linear relationship [2, 8]: Significant
- Quality of Gradient [2, 8]: Positive
- Sensitivity ([2]; to sodium alginate): Yes
- RFU change (Correlation analysis) ([3]; Glucose 5-0.019 mg/ml, 3 μM probe, probe-specific excitation λ, emission 545 nm): Unclear
- RFU change (Signal deviation with increasing [Carbohydrate]) ([3]; Glucose 5-0.019 mg/ml, 3 μM probe, spectral analysis, Excitation 300-500, Emission 545): Increases
- Gradient Parameters (gradient of regression line) [3, 9]: 17.9 ± 38.1
- Quality of Gradient [3, 9]: Horizontal
- Sensitivity ([3]; to glucose): No
- RFU change (Correlation analysis) ([4]; Amylose 5-0.019 mg/ml, 3 μM probe): Unclear
- RFU change (Signal deviation with increasing [Carbohydrate]) ([4]; Amylose 5-0.019 mg/ml, 3 μM probe, spectral analysis, Excitation 300-500, Emission 545): Unclear
- RFU change (Correlation analysis) ([4]; Cellulobiose 5-0.019 mg/ml, 3 μM probe): Unclear
- RFU change (Signal deviation with increasing [Carbohydrate]) [4, 10]: Unclear
- λmax change [4, 10]: No change
- Gradient Parameters (gradient of regression line) ([4]; amylose concentration vs RFU): −28.4 ± 21.6
- Quality of Gradient ([4]; amylose concentration vs RFU): Horizontal
- Gradient Parameters (gradient of regression line) [4, 11]: −1.30 ± 12.9
- Quality of Gradient [4, 11]: Horizontal
- Sensitivity ([4]; to amylose): No
- Sensitivity ([4]; to cellulobiose): No
- RFU change (Correlation analysis) ([5]; Glycogen 5-0.019 mg/ml, 3 μM probe): Increases
- RFU change (Signal deviation with increasing [Carbohydrate]) [5, 12]: Increases
- λmax change [5, 12]: Redshift
- carbohydrate can be detected and/or differentiated by the LCO ([5]; Glycogen): can be detected and/or differentiated
- RFU change (Correlation analysis) ([5]; Heparin 5-0.019 mg/ml, 3 μM probe): Increases
- RFU change (Signal deviation with increasing [Carbohydrate]) ([5]; Heparin 5-0.019 mg/ml, 3 μM probe, spectral analysis, Excitation 300-500, Emission 545): Increases
- carbohydrate can be detected and/or differentiated by the LCO ([5]; Heparin): can be detected and/or differentiated
- Gradient Parameters (gradient of regression line) ([5]; glycogen concentration vs RFU): 72.8 ± 13.4
- Linear relationship ([5]; glycogen concentration vs RFU): Significant
- Quality of Gradient ([5]; glycogen concentration vs RFU): Positive
- Gradient Parameters (gradient of regression line) ([5]; heparin concentration vs RFU): 29.3 ± 8.6
- Linear relationship ([5]; heparin concentration vs RFU): Significant
- Quality of Gradient ([5]; heparin concentration vs RFU): Positive
- Sensitivity ([5]; to glycogen): Yes
- Sensitivity ([5]; to heparin): Yes
- RFU change (Correlation analysis) ([6]; Chondroitin Sulfate A 5-0.019 mg/ml, 3 μM probe, probe-specific excitation λ, emission 545 nm): Increases
- RFU change (Signal deviation with increasing [Carbohydrate]) [6, 13]: Increases
- λmax change [6, 13]: No change
- Gradient Parameters (gradient of regression line) [6, 14]: 143.4 ± 10.01
- Linear relationship [6, 14]: Significant
- Quality of Gradient [6, 14]: Positive
- carbohydrate can be detected and/or differentiated by the LCO ([6]; Chondroitin sulfate A, conclusion from change in signal magnitude and/or shift in λmax): can be detected and/or differentiated
- Sensitivity ([6]; to Chondroitin Sulfate A): Yes
